In patent publication US20210401776A1, “METHOD OF TREATING […] SYNDROMES USING FENFLURAMINE ENANTIOMERS” (ZOGENIX INTERNATIONAL LIMITED, priority 2018, published 2021):
Entries after “also recorded” stand apart in the source; their conditions may differ.

How the values were obtained:
[1] = system: homozygous scn1Lab−/− mutants; experiment: zebrafish locomotor assay (total distance in large movements, lardist); format: in vivo, zebrafish (Danio rerio); settings: scn1Lab−/− mutants; for reduction in seizure behavior: fixed concentration, FIG. 3
Text: (Baraban et al, 2013). Additional phenotypes of these mutants include: abnormal optokinetic response (OKR; 5 dpf); darkened pigmentation; death by 14 dpf; spontaneous seizure-like activity; abnormal (forebrain electrographic activity (3-7 dpf); seizure activity; lower levels of serotonin in scn1lab^−/− head homogenates at 7 dpf; zebrafish express orthologs of human serotonin (5HT) receptor subtypes at 5 dpf; nighttime hyperactivity (5 dpf); in open field-increased thigmotaxis. decreased movement (at 5 dpf); no differences in GABAergic neurons compared to wild type (5 dpf); 5-HT2a (hitr2aa/b) and S-HT2c; (htr2c11) orthologs expressed in larval heads in wild-type and scn1lab−/− mutants and in adult wild-type brains.
To assay the locomotor activity of homozygous scn1Lab−/− mutants and control WT scn1Lab+/+, zebrafish larvae were placed one larva per well in a 96-well plate in 100 μL of embryo medium from 4 to 8 days post-fertilization (dpf). Each day the larvae are tracked in an automated tracking device (ZebraBox™ apparatus; Viewpoint, Lyon, France) for 10 min after 30 min habituation (100-second integration interval). All recordings were performed at the same time during daytime period. The total distance in large movements was recorded and quantified using ZebraLab™ software (Viewpoint, Lyon, France). Data was pooled together from at least three independent experiments with at least 24 larvae per condition.
Scn1Lab^−/− mutants and WT scn1Lab+/+ larvae are arrayed in the same plate and treated at 6 days post fertilization (dpf) with the test compounds (25 μM), or VHC in individual wells of a 96-well plate. After incubation at 28° C. on a 14/10 hour light/dark cycle and 30-min chamber habituation 6 and 7 dpf larvae are tracked for locomotor activity for 10 min (100-second integration interval) under dark conditions. An incubation time of 1.5 hours is further referred to as short treatment (6 dpf). Furthermore, these larvae are analyzed after more than 22 hours incubation (7 dpf), i.e. long treatment. The total locomotor activity is quantified using the parameter lardist and plotted in cm. Data for each compound is pooled together from multiple independent experiments with at least 9 larvae per treatment condition.

[2] = system: homozygous scn1Lab−/− mutants; experiment: epileptiform activity, open-field recordings in larval forebrain (LFP assay); format: in vivo, zebrafish (Danio rerio); settings: for LFP Assay: Table 1, 25, 59 and 100 μM, oral via embryo medium
dizocilpine-treated mice [3] = experiment: spontaneous alternation in the Y-maze, dizocilpine-induced amnesia model; format: in vivo, Male Swiss OF-1 mice
dizocilpine-treated mice [4] = experiment: step-through passive avoidance, dizocilpine-induced amnesia model; format: in vivo, Male Swiss OF-1 mice

CC(N)Cc1cccc(C(F)(F)F)c1 (single isomer, unassigned; (+)) [(+)-Norfenfluramine]
antiseizure activity in the zebrafish locomotor assay [1]: more efficacious than (−)-norfenfluramine | reduction in seizure behavior [1]: 80% | LFP Assay [2]: Less effective than (+)-FFA;

CC(N)Cc1cccc(C(F)(F)F)c1 (single isomer, unassigned; (-)) [(−)-Norfenfluramine]
reduction in seizure behavior [1]: 45% | anti-epileptiform activity (frequency and cumulative duration of epileptiform events over 10 minutes) ([2]; 50 micromolar, FIGS. 4 and 5): less efficacious than (+)- and (−)-fenfluramine; also recorded: comparable | LFP Assay [2]: Inactive

Cl.O=C(OCCN1CCOCC1)C1(c2ccccc2)CCCCC1 [PRE-084, 2-(4-Morpholinethyl)-1-phenylcyclohexanecarboxylate hydrochloride]
PP (%) (dizocilpine-treated mice [3]; Table 2 Y-Maze, drug alone 0.1 mg/kg IP): 6.6 ± 12.8% | PP (%) (dizocilpine-treated mice [3]; Table 2 Y-Maze, drug alone 0.3 mg/kg IP): 40.5 ± 9.2 ^1% | PP (%) (dizocilpine-treated mice [3]; Table 3 Y-Maze, drug alone 0.1 mg/kg IP): 15.4 ± 10.9% | PP (%) (dizocilpine-treated mice [3]; Table 3 Y-Maze, drug alone 0.3 mg/kg IP): 32.6 ± 8.9 ^1% | PP (%) (dizocilpine-treated mice [3]; Table 4 Y Maze, drug alone 0.1 mg/kg IP): 17.2 ± 13.8% | PP (%) (dizocilpine-treated mice [3]; Table 4 Y Maze, drug alone 0.3 mg/kg IP): 27.0 ± 9.5 ^1% | PP (%) (dizocilpine-treated mice [4]; Table 2 StepThrough/Passive Avoidance, drug alone 0.1 mg/kg IP): 4.9 ± 9.9% | PP (%) (dizocilpine-treated mice [4]; Table 2 StepThrough/Passive Avoidance, drug alone 0.3 mg/kg IP): 34.6 ± 10.5 ^3% | PP (%) (dizocilpine-treated mice [4]; Table 3 StepThrough/PassiveAvoidance, drug alone 0.1 mg/kg IP): 7.6 ± 12.4% | PP (%) (dizocilpine-treated mice [4]; Table 3 StepThrough/PassiveAvoidance, drug alone 0.3 mg/kg IP): 25.2 ± 9.8 ^3% | PP (%) (dizocilpine-treated mice [4]; Table 4 StepThrough/PassiveAvoidance, drug alone 0.1 mg/kg IP): 8.8 ± 11.0% | PP (%) (dizocilpine-treated mice [4]; Table 4 StepThrough/PassiveAvoidance, drug alone 0.3 mg/kg IP): 38.9 ± 10.4 ^3%

Dehydroepiandrosterone sulfate [DHEAS]
PP (%) (dizocilpine-treated mice [3]; Table 5 YMT, DHEAS alone 5 mg/kg sc): 18.4 ± 9.7% | PP (%) (dizocilpine-treated mice [3]; Table 5 YMT, DHEAS alone 10 mg/kg sc): 29.8 ± 7.4% | PP (%) (dizocilpine-treated mice [3]; Table 5 YMT, DHEAS alone 20 mg/kg sc): 57.9 ± 11.0^1% | PP (%) (dizocilpine-treated mice [4]; Table 5 STPA, DHEAS alone 5 mg/kg sc): 19.1 ± 10.7% | PP (%) (dizocilpine-treated mice [4]; Table 5 STPA, DHEAS alone 10 mg/kg sc): 47.2 ± 12.8% | PP (%) (dizocilpine-treated mice [4]; Table 5 STPA, DHEAS alone 20 mg/kg sc): 40.3 ± 13.3^4%

pregnenolone sulfate [PREGS]
PP (%) (dizocilpine-treated mice [3]; Table 6 YMT, PREGS alone 5 mg/kg sc): 3.5 ± 17.6% | PP (%) (dizocilpine-treated mice [3]; Table 6 YMT, PREGS alone 10 mg/kg sc): 52.4 ± 12.2% | PP (%) (dizocilpine-treated mice [3]; Table 6 YMT, PREGS alone 20 mg/kg sc): 72.1 ± 12.4 ^1% | PP (%) (dizocilpine-treated mice [4]; Table 6 STPA, PREGS alone 5 mg/kg sc): 4.4 ± 16.3% | PP (%) (dizocilpine-treated mice [4]; Table 6 STPA, PREGS alone 10 mg/kg sc): 21.0 ± 14.6% | PP (%) (dizocilpine-treated mice [4]; Table 6 STPA, PREGS alone 20 mg/kg sc): 26.0 ± 19.1 ^4%
